PMC10390775, “CETP inhibitor evacetrapib enters mouse brain tissue” (Frontiers in Pharmacology, 2023)
Values joined by “and” are separate entries in the source; they are usually repeats but may differ in a detail not shown here. Equal entries are not always repeated. Where two headings read alike, the source gives them in different places.

Assays:
[1] = Pharmacokinetics of evacetrapib in plasma, liver and brain after a single tail vein injection (UHPLC-MS-qTOF); format: in vivo, hCETPtg mice (C57BL/6J background); conditions: for Brain peak concentration above plasma IC50: IC50 36 nM in human plasma; for k el: read-out: Kβ (elimination rate constant) (converted); for half-life: read-out: t1/2β (half-life) (converted); for Kp: accounting for residual blood, read-out: Tissue penetration ratio (AUC brain / AUC plasma); for MRT: read-out: MRT (mean residence time); for clearance: read-out: CL (drug clearance) (converted); for Vd: read-out: Vss (volume of distribution at steady state)
Method: The experiment was performed in conformity with the OECD Guidelines 417 ([OECD, 2010]). Male hCETPtg mice were chosen for the pharmacokinetic analysis. Mice were fed Teklad Global Diets #2018 from Envigo, Canada, for 8 weeks starting from birth, followed by a diet change of modified low-fat RD Western diet to match TD.08485 with 1% cholesterol from research diets #D16121201 for a duration of 3–4 weeks. Throughout that period, tap water was provided ad libitum. Initially, evacetrapib was solubilized in 20% of the final solution volume of Kolliphor® EL (pH range 6.0–8.0, cat# C5135) by alternating between 5 min intervals using an ultrasonic water bath at 4°C and a hot water bath at 50°C until complete dissolution. Then, 80% of the final volume was added (isotonic glucose solution 50 g/L glucose containing D-(+)-glucose Sigma cat# G7021 in MilliQ water, sterile filtered).
CETP inhibitor evacetrapib was administered through tail vein injection at doses of 40 mg/kg body weight (BW) or 120 mg/kg BW. Mice weighed 28.42 ± 3.16 g on the day of injection. They were randomly divided into two groups: 24 mice received a dose of 40 mg/kg BW of evacetrapib and the other 24 received a dose of 120 mg/kg BW. Mice from both groups were euthanized at 0, 0.5, 2, 6, 12, and 24 h after injection. Mice euthanized at later time points had continued access to food and water until the end of the experiment. Blood was collected (300–500 µL) at euthanasia for each mouse by cardiac puncture. Blood plasma was extracted using 10 µL of 1 M EDTA pH 8.0 solution in MilliQ water. Brain and liver tissues were collected immediately after euthanasia, rinsed in 0.9% NaCl solution, and snap-frozen in liquid nitrogen. Samples were stored at −80°C until analysis.
Sample preparation and digestion for evacetrapib analysis were performed using UHPLC-MS-qTOF. Working solutions from a stock of evacetrapib were prepared at concentrations of 10 μmol, 100 nmol, 1 nmol, 500 pmol, and 125 pmol per ml of methanol. Working solutions of anacetrapib used as an internal standard were prepared at concentrations of 10 μmol, 100 nmol, and 1 nmol per ml from a stock solution.
Brain and liver samples were homogenized using a polytron supplemented with a carbonate buffer at pH 9.8. The volume was adjusted such that each sample reached a final concentration of 100 mg/ml of buffer. A volume of 0.5 ml of homogenate was transferred to a Pyrex tube and enriched with 100 µL of 1 nmol/ml anacetrapib solution used as an internal standard. Then, samples were extracted twice using 4 ml of saturated ethyl acetate. For each extraction, samples were shaken for 30 min using a lateral shaker, followed by a centrifugation round (20 min, 3,000 rpm, 4°C). Organic phases were collected, combined, and then evaporated until dry under a nitrogen stream in a rotating bath at 40°C. The residues were resuspended in methanol. Samples were vortexed until no residues were left. Resuspended residues for both the brain and liver were then centrifuged (20 min, 3,000 rpm, 4°C). The supernatant was recovered, transferred into new vials, and injected into UHPLC-MS-qTOF. For the plasma measurement, 20 µL of plasma was enriched with 100 µL of 1 nmol/ml anacetrapib solution in a microtube. Evacetrapib was extracted using two steps of ethanol wash (200 µL) followed by an incubation time (30 min, 22°C) and centrifugation (5 min, 16,000 g, 10°C). Samples were dried under a gentle nitrogen stream to separate the liquid phase from the solid phase. The residues were subsequently dissolved in methanol, vortexed until no residues were left, and centrifuged (20 min, 3,000 rpm, 4°C). The supernatant was recovered, transferred into new vials, and injected into UHPLC-MS-qTOF.
Quantification was performed using a seven-point calibration curve with the internal standard correction prepared in the brain, liver, or plasma, respectively. […]

CETP in human plasma = system: CETP in human plasma; parameters: method as in Cao et al., 2011; conditions: ref Cao et al., 2011, read-out: IC50 of CETP inhibition; cited from earlier work
[2] = liver, 120 mg/kg BW i.v., 120 mg/kg
[3] = male, hCETPtg (C57BL/6J background), mouse, brain, iv, 40 mg/kg, brain, 40 mg/kg BW i.v.
[4] = male, hCETPtg (C57BL/6J background), mouse, brain, iv, 120 mg/kg, brain, 120 mg/kg BW i.v.
[5] = male, hCETPtg (C57BL/6J background), mouse, iv, plasma, 40 mg/kg BW i.v.
[6] = male, hCETPtg (C57BL/6J background), mouse, iv, plasma, 120 mg/kg BW i.v.
[7] = male, hCETPtg (C57BL/6J background), mouse, liver, iv, 40 mg/kg, liver, 40 mg/kg BW i.v.
[8] = male, hCETPtg (C57BL/6J background), mouse, liver, iv, 120 mg/kg, liver, 120 mg/kg BW i.v.
[9] = male, hCETPtg (C57BL/6J background), mouse, plasma, iv, 40 mg/kg, plasma, 40 mg/kg BW i.v.
[10] = male, hCETPtg (C57BL/6J background), mouse, plasma, iv, 120 mg/kg, plasma, 120 mg/kg BW i.v.

SMILES: Cc1cc(C)c2c(c1)[C@@H](N(Cc1cc(C(F)(F)F)cc(C(F)(F)F)c1)c1nnn(C)n1)CCCN2C[C@H]1CC[C@H](C(=O)O)CC1 [evacetrapib]
- Peak concentration in the brain after correction for residual blood ([1]; 40 mg/kg BW i.v.): 1.5 µM
- Av. conc. in brain, calculated (corrected for residual blood) ([1]; 40 mg/kg BW i.v., 0 h): 0.00 nmol/g
- Av. conc. in brain, measured (not corrected for residual blood) ([1]; 40 mg/kg BW i.v., 0 h): 2.05 nmol/g
- Av. conc. in brain, calculated (corrected for residual blood) ([1]; 40 mg/kg BW i.v., 0.5 h): 1.5 nmol/g and 1.53 nmol/g
- Av. conc. in brain, measured (not corrected for residual blood) ([1]; 40 mg/kg BW i.v., 0.5 h): 2.21 nmol/g
- Av. conc. in brain, calculated (corrected for residual blood) ([1]; 40 mg/kg BW i.v., 2 h): 1.0 nmol/g and 1.03 nmol/g
- Av. conc. in brain, measured (not corrected for residual blood) ([1]; 40 mg/kg BW i.v., 2 h): 1.41 nmol/g
- Av. conc. in brain, calculated (corrected for residual blood) ([1]; 40 mg/kg BW i.v., 6 h): 0.5 nmol/g and 0.50 nmol/g
- Av. conc. in brain, measured (not corrected for residual blood) ([1]; 40 mg/kg BW i.v., 6 h): 0.57 nmol/g
- Av. conc. in brain, calculated (corrected for residual blood) ([1]; 40 mg/kg BW i.v., 12 h): 0.1 nmol/g and 0.11 nmol/g
- Av. conc. in brain, measured (not corrected for residual blood) ([1]; 40 mg/kg BW i.v., 12 h): 0.12 nmol/g
- Av. conc. in brain, calculated (corrected for residual blood) ([1]; 40 mg/kg BW i.v., 24 h): 0.00 nmol/g
- Av. conc. in brain, measured (not corrected for residual blood) ([1]; 40 mg/kg BW i.v., 24 h): 0.00 nmol/g
- Brain peak concentration above plasma IC50 ([1]; 40 mg/kg BW i.v.): approximately 40 fold
- Peak concentration in the brain after correction for residual blood ([1]; 120 mg/kg BW i.v.): 16.7 µM
- Av. conc. in brain, calculated (corrected for residual blood) ([1]; 120 mg/kg BW i.v., 0 h): 0 nmol/g and 0.00 nmol/g
- Av. conc. in brain, measured (not corrected for residual blood) ([1]; 120 mg/kg BW i.v., 0 h): 22.2 nmol/g
- Av. conc. in brain, calculated (corrected for residual blood) ([1]; 120 mg/kg BW i.v., 0.5 h): 16.7 nmol/g
- Av. conc. in brain, measured (not corrected for residual blood) ([1]; 120 mg/kg BW i.v., 0.5 h): 25.8 nmol/g
- Av. conc. in brain, calculated (corrected for residual blood) ([1]; 120 mg/kg BW i.v., 2 h): 15.3 nmol/g
- Av. conc. in brain, measured (not corrected for residual blood) ([1]; 120 mg/kg BW i.v., 2 h): 17.1 nmol/g
- Av. conc. in brain, calculated (corrected for residual blood) ([1]; 120 mg/kg BW i.v., 6 h): 5.0 nmol/g and 4.96 nmol/g
- Av. conc. in brain, measured (not corrected for residual blood) ([1]; 120 mg/kg BW i.v., 6 h): 5.36 nmol/g
- Av. conc. in brain, calculated (corrected for residual blood) ([1]; 120 mg/kg BW i.v., 12 h): 1.0 nmol/g and 1.00 nmol/g
- Av. conc. in brain, measured (not corrected for residual blood) ([1]; 120 mg/kg BW i.v., 12 h): 1.11 nmol/g
- Av. conc. in brain, calculated (corrected for residual blood) ([1]; 120 mg/kg BW i.v., 24 h): 0.02 nmol/g
- Av. conc. in brain, measured (not corrected for residual blood) ([1]; 120 mg/kg BW i.v., 24 h): 0.03 nmol/g
- Brain peak concentration above plasma IC50 ([1]; 120 mg/kg BW i.v.): ~450 fold
- Increase of tissue penetration ratio from the low to the high dose ([1]; 120 vs 40 mg/kg BW i.v.): 1.63 fold
- AUMC ([1]; brain, 40 mg/kg BW i.v.): 39.2 nmol x h^2/mL
- AUC ([1]; brain, 40 mg/kg BW i.v., 24 h): 10.6 nmol x h/mL
- AUMC ([1]; brain, 120 mg/kg BW i.v.): 395 nmol x h^2/mL
- AUC ([1]; brain, 120 mg/kg BW i.v., 24 h): 115 nmol x h/mL
- Time of peak plasma values ([1]; first sampling time point, 40 and 120 mg/kg BW i.v.): 0 h
- Entry into brain tissue ([1]; hCETPtg mice, i.v. injection): does enter the mouse brain tissue
- AUMC ([1]; liver, 40 mg/kg BW i.v.): 1183 nmol x h^2/mL
- AUC ([1]; liver, 40 mg/kg BW i.v., 24 h): 267 nmol x h/mL
- t1/2β (half-life) ([1]; liver, 40 mg/kg BW i.v., 40 mg/kg): 3.0 h
- AUMC ([1]; liver, 120 mg/kg BW i.v.): 3167 nmol x h^2/mL
- AUC ([1]; liver, 120 mg/kg BW i.v., 24 h): 881 nmol x h/mL
- Kβ (elimination rate constant) [1, 2]: 0.2 h⁻¹
- t1/2β (half-life) [1, 2]: 3.2 h
- k el [1, 3]: 5.56e-05 s⁻¹
- half-life [1, 3]: 2.8 h
- k el [1, 4]: 8.33e-05 s⁻¹
- half-life [1, 4]: 2.5 h
- Kp ([1]; male, hCETPtg (C57BL/6J background), mouse, brain, iv, 40 mg/kg BW i.v.): 0.08
- Kp ([1]; male, hCETPtg (C57BL/6J background), mouse, brain, iv, 120 mg/kg BW i.v.): 0.13
- Tmax ([1]; male, hCETPtg (C57BL/6J background), mouse, brain, iv, both doses, 40 and 120 mg/kg BW i.v., read-out: Time of peak concentration in the brain): 0.5 h
- MRT ([1]; male, hCETPtg (C57BL/6J background), mouse, iv, brain, 40 mg/kg BW i.v.): 3.7 h
- MRT ([1]; male, hCETPtg (C57BL/6J background), mouse, iv, brain, 120 mg/kg BW i.v.): 3.4 h
- MRT ([1]; male, hCETPtg (C57BL/6J background), mouse, iv, liver, 40 mg/kg BW i.v.): 4.4 h
- MRT ([1]; male, hCETPtg (C57BL/6J background), mouse, iv, liver, 120 mg/kg BW i.v.): 3.6 h
- clearance [1, 5]: 0.157 mL/min
- MRT [1, 5]: 2 h
- Vd [1, 5]: 0.0185 L
- clearance [1, 6]: 0.055 mL/min
- MRT [1, 6]: 1.6 h
- Vd [1, 6]: 0.0053 L
- k el [1, 7]: 5.56e-05 s⁻¹
- half-life [1, 7]: 2.8 h
- k el [1, 8]: 8.33e-05 s⁻¹
- half-life [1, 8]: 2.5 h
- k el [1, 9]: 0.000111 s⁻¹
- half-life [1, 9]: 2.3 h
- k el [1, 10]: 5.56e-05 s⁻¹
- half-life [1, 10]: 3 h
- AUMC ([1]; plasma, 40 mg/kg BW i.v.): 398 nmol x h^2/mL
- Kα ([1]; plasma, 40 mg/kg BW i.v.): 6.5 h⁻¹
- t1/2α ([1]; plasma, 40 mg/kg BW i.v.): 0.1 h
- AUC ([1]; plasma, 40 mg/kg BW i.v., 24 h): 203 nmol x h/mL
- AUMC ([1]; plasma, 120 mg/kg BW i.v.): 2297 nmol x h^2/mL
- Kα ([1]; plasma, 120 mg/kg BW i.v.): 1.8 h⁻¹
- t1/2α ([1]; plasma, 120 mg/kg BW i.v.): 0.4 h
- AUC ([1]; plasma, 120 mg/kg BW i.v., 24 h): 1418 nmol x h/mL
- IC50 (CETP in human plasma): 36 nM
